Reference: publication PMC1978516, “The PDZ Domain as a Complex Adaptive System” (PLoS ONE, 2007)
Ends that are not written are not given here.

How the values were obtained:
third PSD95 PDZ domain = details: cited from earlier work
Description: (§1) In order to gain insight into the pattern recognition differences of the PDZ domains that belong to the same class but are able to differentiate between peptide ligands sharing the class-defining C-terminal consensus, we investigated a particular case of this general puzzle, namely, the differences in recognition preferences between the second and third PDZ domains of PSD95, which are classified as type I PDZ domains but are known to discriminate between various X-(S/T)-X-(V/I/L)-COOH ligands, [18]. In Fig. 5A we compare two sets of C-terminal sequences. The first set represents the s ...

first PSD95 PDZ domain = details: cited from earlier work
Description: as §1

second PSD95 PDZ domain = details: cited from earlier work
Description: as §1

PSD95-PDZ3 [1] = test: phage ELISA on immobilized GST-PDZ fusion; format: binding; details: Fig. 1 and not shown
Experimental: Binding histograms were obtained by individual phage ELISA performed on purified GST fusions of the indicated domains immobilized in micro-titer plate wells [40]. For accurate relative affinity evaluations and cross-domain comparison, the slopes of individual ELISA kinetics were determined and normalized by the highest slope value in each of the six sets shown. The 96th well in each set was loaded with a library aliquot to indicate background. Axis X indicates identification (i.d.) numbers of individual artificial ligands (see individual ligand sequences together with their i.d. numbers in Table S1). Axis Y indicates the normalized relative affinity. The domain organization of the PSD95 and SAP97 proteins is shown above histograms.
GST fusion-coated microtiter ELISA plates (COSTAR) were prepared by passive immobilization of 1 µg of the indicated GST fusion proteins (Fig. 1) per well in 200 µl of 0.1M NaHCO3, pH 8.0, overnight at 4°C. Following protein coating, plates were blocked by adding 150 µl of 1% BSA in TBS for 1 hour at RT. Following incubation, the wells with immobilized target proteins were washed 5 (x1ml) times with TBS-T. One hundred µl of freshly prepared individual phage lysate was added to the ELISA plate wells and incubated for 1 hour at RT. Following incubation, unbound phages were washed away with TBS-T and the amount of retained phages was determined with polyclonal T7 phage-specific antibodies followed by monoclonal anti-rabbit antibodies conjugated to horseradish peroxidase (HRP) (Amersham Pharmacia). The individual phage ELISA kinetics were followed and quantified colorimetrically using soluble HRP substrate (ABTS/H2O2). ELISA readings were taken on a SpectraMAX190 plate reader (Molecular Devices) at 405 nm. To ensure reproducibility, each of the individual phage ELISA binding histograms presented was obtained at least three times in at least three separate experiments performed by two different experimenters.

PSD95-PDZ3 [2] = test: peptide ELISA on immobilized GST-PDZ fusion; format: binding; details: Fig. 3
Description: (§2) Figure 3 Binding of 126 proteomic fragments (natural ligands) to six PDZ domains of PSD95 and SAP97. Binding histograms were obtained by peptide ELISA performed on purified GST fusions of the indicated domains immobilized in micro-titer plate wells as described previously. The X axis indicates the i.d. numbers of natural ligands (see Table S2). The Y axis indicates the peptide ELISA kinetics slope value in arbitrary units (a.u.). The 127th and 128th wells in each of the six sets were loaded with irrelevant peptides to indicate background signal. To illustrate internal consistency of the affinity evaluations obtained by peptide ELISA and their external consistency with the previously published affinity measurements, the reported affinities of the five PDZ domain-ligand pairs obtained by three different research groups using fluorescence polarization, [18], [32] are shown.
(§3) Wells of microtiter plates were coated with 1 µg of the indicated GST-PDZ domain fusions, washed with TBS-T and blocked with 1% BSA in the same way as described above for phage ELISA. Individual biotinylated peptides (30 ng) were pre-incubated with 1 µg of streptavidin-HRP conjugate (Pierce) in 300 µl of TBS-T for 30 min at RT. One hundred µl of the peptide-streptavidin-HRP conjugate were added to 100 µl of TBS-T left in each coated well after the final wash of the protein immobilization/blocking procedure. Microtiter plates were incubated for 1 hour at RT, and then washed 5 (x1mL) times with TBS-T. The amounts of peptides retained were quantified colorimetrically by adding soluble HRP substrate (ABTS/H2O2) and measuring ELISA kinetic slopes. ELISA readings were taken on a SpectraMAX190 plate reader (Molecular Devices) at 405 nm. To ensure reproducibility, all peptide ELISA experiments presented were repeated at least three times in at least three separate experiments performed by two different experimenters.

PSD95-PDZ2 = test: peptide ELISA on immobilized GST-PDZ fusion; format: binding; details: Fig. 3
Description: as §2, §3

SAP97-PDZ2 = test: peptide ELISA on immobilized GST-PDZ fusion; format: binding; details: Fig. 3
Description: as §2, §3

Substance	interaction with the third PSD95 PDZ domain (third PSD95 PDZ domain)	interaction with the first PSD95 PDZ domain (first PSD95 PDZ domain)	interaction with the second PSD95 PDZ domain (second PSD95 PDZ domain)	interaction with PSD95-PDZ3 in vitro (PSD95-PDZ3 [1])	further results
VNKSKLLTDV-OH [Kv1.1]	fail to interact	bind	bind	–	–
TTGKKRRWYHSF> [compound 19]	–	–	–	interacts selectively and with reasonable affinity	–
VNIKKIFTDV-OH [Kv1.3]	fail to interact	bind	bind	–	–
TRGTKRSWYHSF> [compound 17]	–	–	–	interacts selectively and with reasonable affinity	–
VNITKMLTDV-OH [Kv1.2]	fail to interact	bind	bind	–	–
IADESDPAESMESLV> [compound 017, N-terminally biotinylated 15-mer proteomic fragment, SWISS-PROT P23470, receptor-type tyrosine protein phosphatase gamma]	–	–	–	–	binding to the third PDZ domain of PSD95 (PSD95-PDZ3 [2]): not to their third PDZ domains; binding to the second PDZ domain of PSD95 (PSD95-PDZ2): bind to the second PDZ domains; binding to the second PDZ domain of SAP97 (SAP97-PDZ2): bind to the second PDZ domains
ALPDGNIAESLESLV> [compound 018, N-terminally biotinylated 15-mer proteomic fragment, SWISS-PROT P23471, receptor-type tyrosine protein phosphatase zeta]	–	–	–	–	binding to the third PDZ domain of PSD95 (PSD95-PDZ3 [2]): not to their third PDZ domains; binding to the second PDZ domain of PSD95 (PSD95-PDZ2): bind to the second PDZ domains; binding to the second PDZ domain of SAP97 (SAP97-PDZ2): bind to the second PDZ domains
EKLSSIESDV-OH [NR2B]	fail to interact	bind	bind	–	–
KKMPSIESDV-OH [NR2A]	fail to interact	bind	bind	–	–
TRGTKRSWYYSF> [compound 20]	–	–	–	interacts selectively and with reasonable affinity	–
TSGTKRSWYHSF> [compound 18]	–	–	–	interacts selectively and with reasonable affinity	–
